For 8 molecules, IC50 and GI50 results are on record in patent US12622909B2, “Allosteric EGFR inhibitors and methods of use thereof” (Dana-Farber Cancer Institute, Inc., priority 2019, dated 2026).

One assay addresses EGFR L858R (Homo sapiens, UniProt P00533, L858R). In words: HTRF-based EGFR biochemical assay (L858R). To be noted: 100 μM ATP, enzyme 0.1 nM. An outline of the steps:
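Reaction started with 100 μM ATP (final) for 20 min, then quenched with EDTA. Phosphorylation detected by HTRF (Eu-cryptate anti-phosphotyrosine/Streptavidin-XL665, 665/620 nm).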

The target in another assay is EGFR L858R/T790M (Homo sapiens, UniProt P00533, L858R/T790M). In words: HTRF-based EGFR biochemical assay (L858R/T790M). The conditions noted are these: 100 μM ATP, enzyme 0.02 nM. An outline of the steps: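 Mutant EGFR preincubated 30 min with compound at room temperature, then reacted 20 min with 1 μM biotinylated tyrosine kinase peptide and 100 μM ATP in 50 mM HEPES pH 7.0, 5 mM MgCl2, 1 mM MnCl2, 0.01% BSA, 2 mM TCEP, 0.1 mM NaVO4. Phosphorylation read by HTRF.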
EGFR L858R/T790M, sequence (P00533 25-1210 T790M/L858R): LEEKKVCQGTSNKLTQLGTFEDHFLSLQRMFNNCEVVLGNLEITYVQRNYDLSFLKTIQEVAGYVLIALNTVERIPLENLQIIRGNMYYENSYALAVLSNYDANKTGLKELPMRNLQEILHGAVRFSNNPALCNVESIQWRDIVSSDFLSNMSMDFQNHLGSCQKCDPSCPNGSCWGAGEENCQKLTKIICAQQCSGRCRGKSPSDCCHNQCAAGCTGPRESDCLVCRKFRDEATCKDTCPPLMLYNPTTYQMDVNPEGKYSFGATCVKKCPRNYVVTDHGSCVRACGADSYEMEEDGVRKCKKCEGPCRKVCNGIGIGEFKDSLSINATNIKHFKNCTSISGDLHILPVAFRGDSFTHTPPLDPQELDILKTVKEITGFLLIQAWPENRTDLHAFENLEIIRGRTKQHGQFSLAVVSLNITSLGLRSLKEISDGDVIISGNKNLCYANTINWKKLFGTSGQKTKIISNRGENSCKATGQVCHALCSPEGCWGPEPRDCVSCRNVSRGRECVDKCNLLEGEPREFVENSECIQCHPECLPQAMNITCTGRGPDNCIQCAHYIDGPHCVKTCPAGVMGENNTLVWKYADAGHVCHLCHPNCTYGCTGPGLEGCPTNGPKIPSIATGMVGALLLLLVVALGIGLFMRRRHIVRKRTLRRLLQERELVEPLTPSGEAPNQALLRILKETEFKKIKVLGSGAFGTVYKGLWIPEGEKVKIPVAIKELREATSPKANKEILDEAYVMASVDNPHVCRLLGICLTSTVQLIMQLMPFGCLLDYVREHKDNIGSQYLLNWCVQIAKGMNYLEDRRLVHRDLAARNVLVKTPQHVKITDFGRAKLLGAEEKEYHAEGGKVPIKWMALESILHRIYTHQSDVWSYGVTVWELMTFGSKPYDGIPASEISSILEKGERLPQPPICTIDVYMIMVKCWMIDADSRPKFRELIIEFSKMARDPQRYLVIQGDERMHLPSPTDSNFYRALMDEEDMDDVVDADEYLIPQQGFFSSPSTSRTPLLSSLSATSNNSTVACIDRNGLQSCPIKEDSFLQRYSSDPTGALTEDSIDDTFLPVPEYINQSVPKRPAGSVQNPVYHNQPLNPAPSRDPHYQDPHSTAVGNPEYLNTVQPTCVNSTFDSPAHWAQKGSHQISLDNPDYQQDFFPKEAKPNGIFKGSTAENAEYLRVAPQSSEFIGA

The target in assay [1] is EGFR L858R/T790M mutant Ba/F3 cells (Homo sapiens, UniProt P00533, T790M/L858R, cells depend on it). In words: Ba/F3 cell proliferation (Cell Titer Glo). To be noted: 72 hours. Type of assay: cell-based, murine. An outline of the steps:
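Ba/F3 cells retrovirally transduced with the EGFR construct and puromycin-selected (2 μg/ml), grown in RPMI 1640 with 10% FBS. Viability read by Cell Titer Glo luminescence (ATP content), triplicate points, experiments repeated at least three times. Curves fitted by non-linear sigmoidal dose-response regression.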

Setting [2] is: in combination with 1 μg/ml cetuximab, read-out: Cell IC50 BaF3 L858R/T790M compound + cetuximab.
Setting [3] is: single agent, read-out: Cell IC50 EGFR BaF3 L858R/T790M.

The structures appear in SMILES notation. Where a name gives a salt, the structure may show the parent alone. Read-outs that look alike come from different tables or passages of the source.

EGFR L858R/T790M mutant Ba/F3 cells, sequence (P00533 whole entry T790M/L858R): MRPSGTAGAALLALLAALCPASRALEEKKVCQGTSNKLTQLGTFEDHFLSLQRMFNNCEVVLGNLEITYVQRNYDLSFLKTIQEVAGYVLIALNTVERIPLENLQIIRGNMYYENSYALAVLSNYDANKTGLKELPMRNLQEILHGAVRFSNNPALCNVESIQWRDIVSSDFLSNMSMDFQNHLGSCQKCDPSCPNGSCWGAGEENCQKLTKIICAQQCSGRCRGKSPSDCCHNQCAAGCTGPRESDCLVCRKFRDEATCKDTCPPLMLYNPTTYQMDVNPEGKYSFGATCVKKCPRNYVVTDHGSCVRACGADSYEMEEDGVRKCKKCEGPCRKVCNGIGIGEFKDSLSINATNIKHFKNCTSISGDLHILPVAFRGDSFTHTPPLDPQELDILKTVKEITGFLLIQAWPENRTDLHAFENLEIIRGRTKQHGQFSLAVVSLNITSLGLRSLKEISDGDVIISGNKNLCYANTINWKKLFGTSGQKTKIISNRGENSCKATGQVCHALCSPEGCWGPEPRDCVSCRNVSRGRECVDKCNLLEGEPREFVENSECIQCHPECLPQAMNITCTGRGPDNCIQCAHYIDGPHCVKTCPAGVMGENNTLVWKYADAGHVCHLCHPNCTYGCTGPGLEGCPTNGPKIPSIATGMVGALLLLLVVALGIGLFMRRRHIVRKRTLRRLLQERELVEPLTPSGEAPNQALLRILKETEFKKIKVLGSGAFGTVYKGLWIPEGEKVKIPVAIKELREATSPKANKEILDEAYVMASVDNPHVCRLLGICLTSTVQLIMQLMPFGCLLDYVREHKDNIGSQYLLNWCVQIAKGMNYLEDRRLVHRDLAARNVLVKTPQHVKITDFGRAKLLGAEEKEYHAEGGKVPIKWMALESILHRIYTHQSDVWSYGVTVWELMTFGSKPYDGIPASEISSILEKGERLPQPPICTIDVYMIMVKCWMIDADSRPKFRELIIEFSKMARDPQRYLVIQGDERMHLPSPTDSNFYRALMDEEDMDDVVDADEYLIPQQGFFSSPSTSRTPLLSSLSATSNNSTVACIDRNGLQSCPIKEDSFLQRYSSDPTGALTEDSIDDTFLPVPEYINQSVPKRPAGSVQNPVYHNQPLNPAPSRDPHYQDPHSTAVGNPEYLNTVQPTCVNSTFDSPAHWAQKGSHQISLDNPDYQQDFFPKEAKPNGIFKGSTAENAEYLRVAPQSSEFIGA
EGFR L858R, sequence (P00533 25-1210 L858R): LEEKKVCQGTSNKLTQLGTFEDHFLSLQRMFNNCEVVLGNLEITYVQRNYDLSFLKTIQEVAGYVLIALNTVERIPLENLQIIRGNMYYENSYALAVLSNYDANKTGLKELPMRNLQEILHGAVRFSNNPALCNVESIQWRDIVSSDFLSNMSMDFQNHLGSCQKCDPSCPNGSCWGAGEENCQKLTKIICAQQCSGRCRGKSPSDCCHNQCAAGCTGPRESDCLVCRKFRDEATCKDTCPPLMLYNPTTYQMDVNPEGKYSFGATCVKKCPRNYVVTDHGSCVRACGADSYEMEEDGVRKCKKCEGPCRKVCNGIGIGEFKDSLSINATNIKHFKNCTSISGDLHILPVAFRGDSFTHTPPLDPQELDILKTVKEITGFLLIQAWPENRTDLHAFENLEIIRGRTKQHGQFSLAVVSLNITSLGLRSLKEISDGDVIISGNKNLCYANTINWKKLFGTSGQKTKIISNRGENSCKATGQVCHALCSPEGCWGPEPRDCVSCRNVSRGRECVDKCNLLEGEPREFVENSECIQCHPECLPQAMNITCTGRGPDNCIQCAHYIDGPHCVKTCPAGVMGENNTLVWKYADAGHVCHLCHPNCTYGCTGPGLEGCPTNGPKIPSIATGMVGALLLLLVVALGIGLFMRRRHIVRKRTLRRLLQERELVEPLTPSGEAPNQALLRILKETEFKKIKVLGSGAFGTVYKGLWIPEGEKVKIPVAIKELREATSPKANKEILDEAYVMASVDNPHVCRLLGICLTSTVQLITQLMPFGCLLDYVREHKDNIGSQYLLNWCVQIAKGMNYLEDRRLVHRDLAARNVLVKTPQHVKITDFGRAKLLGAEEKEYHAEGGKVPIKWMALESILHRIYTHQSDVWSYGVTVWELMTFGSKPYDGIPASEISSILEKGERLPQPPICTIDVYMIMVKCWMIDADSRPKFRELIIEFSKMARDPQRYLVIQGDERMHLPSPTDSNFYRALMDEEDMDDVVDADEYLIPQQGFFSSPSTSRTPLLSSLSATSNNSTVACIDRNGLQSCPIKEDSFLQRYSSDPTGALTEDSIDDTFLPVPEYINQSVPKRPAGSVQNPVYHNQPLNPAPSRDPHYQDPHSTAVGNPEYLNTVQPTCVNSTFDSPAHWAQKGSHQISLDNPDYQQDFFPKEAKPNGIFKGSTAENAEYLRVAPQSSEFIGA

For orientation: IC50 means the concentration that inhibits the measured activity by half. A higher IC50 goes with weaker potency. Regarding `CN1CCN(c2ccc(-c3ccc4ncn(C(C(=O)Nc5nccs5)c5ccccc5F)c(=O)c4c3F)cc2)CC1` (centres unmarked) [Compound 076, 2-(5-Fluoro-6-(4-(4-methyl-piperazin-1-yl)phenyl)-4-oxo-quinazolin-3(4H)-yl)-2-(2-fluoro-phenyl)-N-(thiazol-2-yl)acetamide], the values for the concentration for half-maximal inhibition (IC50) against EGFR L858R and on EGFR L858R/T790M were 8 nM and 0.7 nM, respectively. The GI50 in assay [1] (setting [2]) stood at 44 nM; in assay [1] (setting [3]), 3360 nM.

For the molecule `COc1cccc(F)c1C(C(=O)Nc1nccs1)n1cnc2ccc(-c3ccc(N4CCN(C)CC4)cc3)cc2c1=O` (centres unmarked) [Compound 077, 2-(2-Fluoro-6-methoxyphenyl)-2-(6-(4-(4-methylpiperazin-1-yl)phenyl)-4-exoquinazolin-3(4H)-yl)-N-(thiazol-2-yl)acetamide], the half-inhibitory concentration (IC50) was determined as 35 nM at EGFR L858R and 17 nM on EGFR L858R/T790M. Also, the GI50 amounted to 2100 nM in assay [1] (setting [2]) and 6460 nM in assay [1] (setting [3]).

Turning to `COc1cccc(F)c1C(C(=O)Nc1nccs1)n1cnc2ccc(-c3ccc(C4CCN(C)CC4)cc3)cc2c1=O` (centres unmarked) [Compound 078], the 50% inhibitory concentration (IC50) on EGFR L858R was found to be 8 nM; against EGFR L858R/T790M, 1 nM. Besides, the GI50 stood at 620 nM in assay [1] (setting [2]) and 4200 nM in assay [1] (setting [3]).

As to `CN1CCC(c2ccc(-c3ccc4ncn(C(C(=O)Nc5ccccn5)c5cc(F)ccc5O)c(=O)c4c3)cc2)CC1` (centres unmarked) [Compound 082, 2-(5-Fluoro-2-hydroxyphenyl)-2-(6-(4-(1-methylpiperidin-4-yl)phenyl)-4-oxoquinazolin-3(4H)-yl)-N-(pyridin-2-yl)acetamide; hydrochloride], the IC50 against EGFR L858R is 1 nM; at EGFR L858R/T790M, 0.2 nM. Further, the GI50 in assay [1] (setting [2]) was found to be 2 nM; in assay [1] (setting [3]), 230 nM.

With `CN1CCC(c2ccc(-c3ccc4ncn(C(C(=O)Nc5nccs5)c5cc(F)ccc5O)c(=O)c4c3F)cc2)CC1` (centres unmarked) [Compound 083, 2-(5-Fluoro-2-hydroxyphenyl)-2-(5-fluoro-6-(4-(1-methylpiperidin-4-yl)phenyl)-4-oxoquinazolin-3(4H)-yl)-N-(thiazol-2-yl)acetamide], the figures for the IC50 against EGFR L858R and against EGFR L858R/T790M were 0.2 nM and 0.1 nM, respectively. Besides, the GI50 is 9 nM in assay [1] (setting [2]) and 40 nM in assay [1] (setting [3]).

On to `CN1CCC(c2ccc(-c3ccc4ncn(C(C(=O)Nc5nccs5)c5cc(F)ccc5O)c(=O)c4n3)cc2)CC1` (centres unmarked) [Compound 084, 2-(5-Fluoro-2-hydroxyphenyl)-2-(6-(4-(1-methylpiperidin-4-yl)phenyl)-4-oxopyrido[3,2-d]pyrimidin-3(4H)-yl)-N-(thiazol-2-yl)acetamide], for which the IC50 amounted to 0.4 nM on EGFR L858R and 0.1 nM against EGFR L858R/T790M. Further, the GI50 in assay [1] (setting [2]) is 48 nM; in assay [1] (setting [3]), 860 nM.

For `CN1CCN(c2ccc(-c3ccc4ncn(C(C(=O)Nc5nccs5)c5c(O)cccc5F)c(=O)c4c3)cc2)CC1` (centres unmarked) [Compound 085, 2-(2-Fluoro-6-hydroxyphenyl)-2-(6-(4-(4-methylpiperazin-1-yl)phenyl)-4-oxoquinazolin-3(4H)-yl)-N-(thiazol-2-yl)acetamide], the concentration for half-maximal inhibition (IC50) turned out to be 6 nM against EGFR L858R and 3 nM against EGFR L858R/T790M. Moreover, the GI50 in assay [1] (setting [2]) was 66 nM; in assay [1] (setting [3]) it was 5770 nM.

For `CN1CCC(c2ccc(-c3ccc4ncn(C(C(=O)Nc5nccs5)c5c(O)cccc5F)c(=O)c4c3)cc2)CC1` (centres unmarked) [Compound 086, 2-(2-Fluoro-6-hydroxyphenyl)-2-(6-(4-(1-methylpiperidin-4-yl)phenyl)-4-oxoquinazolin-3(4H)-yl)-N-(thiazol-2-yl)acetamide], the values for the IC50 against EGFR L858R and against EGFR L858R/T790M were 2 nM and 0.4 nM, respectively. In addition, the GI50 in assay [1] (setting [2]) is 33 nM; in assay [1] (setting [3]), 3160 nM.
